According to US10363250B2, “Folate receptor binding conjugates of antifolates” (Purdue Research Foundation, priority 2008, dated 2019):
“And” between values parts separate entries of the source, which are not always exact repeats. Equal values may be shown once. Read-outs that look alike come from different tables or passages of the source. Blank lines part the entries; values can stand above or below the molecule they belong to.

Key:
human FRs (KB cells) = target: T1, human FRs (KB cells) (Homo sapiens, UniProt P15328); assay: Cell-Based Relative Affinity Assay (competition with 3H-FA on adherent KB cells); type: binding; details: for fold weaker affinity / fold lower RA: versus FA (or the Glu-bearing parent)
T1 construct: endogenous in cells; host or cells: KB cells
Method: Cell culture. Cells were grown continuously as a monolayer using folate-free RPMI medium (FFRPMI) containing 10% heat-inactivated fetal calf serum (HIFCS) at 37° C. in a 5% CO2/95% air-humidified atmosphere with no antibiotics. The HIFCS contained its normal complement of endogenous folates which enabled the cells to sustain growth in this more physiologically-relevant medium (Leamon et al. Proc Natl Acad Sci, USA 1991; 88:5572-6). All cell experiments were performed using FFRPMI containing 10% HIFCS (FFRPMI/HIFCS) as the growth medium unless otherwise specified.
Cell-Based Relative Affinity Assay. The relative affinity of each test article was determined based on a method initially described by Westerhoff et al. Mol Pharm 1995; 48:459-71) with modifications. Briefly, FR-positive KB cells were seeded in 24-well Falcon plates and allowed to form adherent monolayers (>75% confluent) overnight in FFRPMI/HIFCS. […] Cells were incubated for 1 h on ice or in an incubator at 37° C. (as specified in the figure legends) and then rinsed 3 times with 0.5 mL of PBS. Five hundred microliters of 1% sodium dodecyisulfate in PBS were added to each well; after 5 min, cell lysates were collected, transferred to individual vials containing 5 mL of scintillation cocktail, and then counted for radioactivity. […] Relative affinities were defined as described above.
(§1) Relative Affinity Assay Format. The in vitro RA assay described within measures a ligand's ability to compete with FA for binding to FRs. To date, cultured cells have most commonly been used as the FR source. However, herein described is the evaluation of the use of a cell-free, immobilized FR plate system for this assay. This latter method utilized a microtiter plate to which commercially-available bovine milk soluble FBP had been chemically anchored. Similar to the cell-based method, ^3H-FA can compete directly with increasing concentrations of test article for binding to the attached FRs; however, unlike the cell-based method, bound radiolabel can be conveniently “stripped” from the plate by rinsing with a mildly acidic saline solution. […] Likewise, values lower than unity reflect weaker affinity, and values higher than unity reflect stronger affinity.

Folate Receptor = Folate Receptor (Homo sapiens, UniProt P15328); details: Table 1 footnote (a): Westerhoff et al. 1995; cited from earlier work
KB cells = assay: Activity against KB cells (72 h continuous assay); type: cell-based; details: Homo sapiens
[1] = system: human KB tumor cells xenografts; assay: Activity against subcutaneous KB tumors; type: in vivo, mice; details: 2 μmol/kg TIW/2 weeks
Method: Effect On Transplanted KB Tumors. Mice are injected, subcutaneously with human KB tumor cells xenografts.

[2] = target: bovine milk soluble folate binding protein (sFBP) (Bos taurus, UniProt P02702); details: plate-anchored bovine milk sFBP, cold incubation, absence of serum
Source text: as §1

[3] = Table 1, adherent KB cells, 10% serum, 37° C., FA = 1
[4] = KB cells, 10% serum (10% serum/FDRPMI)

T1 sequence (P15328 25-234): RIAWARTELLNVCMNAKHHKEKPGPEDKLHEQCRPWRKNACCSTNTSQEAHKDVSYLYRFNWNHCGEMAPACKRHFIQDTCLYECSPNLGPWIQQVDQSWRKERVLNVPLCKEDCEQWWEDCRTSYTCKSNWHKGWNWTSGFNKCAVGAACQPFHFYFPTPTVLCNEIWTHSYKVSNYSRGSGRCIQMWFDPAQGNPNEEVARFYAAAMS
Sequence of Folate Receptor (P15328 25-234): as above
Sequence of bovine milk soluble folate binding protein (sFBP) (P02702 20-234): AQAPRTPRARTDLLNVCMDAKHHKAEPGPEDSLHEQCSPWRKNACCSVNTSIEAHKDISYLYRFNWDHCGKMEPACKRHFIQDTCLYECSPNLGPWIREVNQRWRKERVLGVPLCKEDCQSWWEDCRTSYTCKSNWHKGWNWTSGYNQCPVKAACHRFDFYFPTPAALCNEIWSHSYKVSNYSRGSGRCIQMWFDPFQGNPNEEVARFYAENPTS

Structure (SMILES): Nc1nc2c(c(=O)[nH]1)N(C=O)C(CNc1ccc(C(=O)N[C@@H](CCC(=O)O)C(=O)O)cc1)CN2 (stereo partly shown) [5-formyl-tetrahydrofolate, 5-formyltetrahydrofolate]
fold weaker affinity / fold lower RA (human FRs (KB cells); KB cells, 10% serum, 37° C.): 125
Fold Weaker Affinity from FA (human FRs (KB cells); Table 1, 37° C., 10% serum): 125
Relative Binding Affinity (0° C.) (human FRs (KB cells); Table 1, KB cells, FA = 1): 0.15
Relative Binding Affinity (37° C.) (human FRs (KB cells); [3]): 0.008
Relative Binding Affinity (0° C.), value in parentheses (Folate Receptor): 0.1

Structure (SMILES): C#CCN(Cc1ccc2nc(N)[nH]c(=O)c2c1)c1ccc(C(=O)N[C@@H](CCC(=O)O)C(=O)O)cc1 [CB3717, N10-propargyl-5,8-dideazafolic acid]
RA (relative affinity) (human FRs (KB cells); [4]): 0.148
RA / competitive binding in words (human FRs (KB cells); KB cells, 10% serum, 37° C.): equal to that of FA
Fold Weaker Affinity from FA (human FRs (KB cells); Table 1, 37° C., 10% serum): 1.0
Relative Binding Affinity (37° C.) (human FRs (KB cells); [3]): 1.000
IC50 (KB cells; FIG. 9 Panel A): 5 nM
IC50 (KB cells; FIG. 9 Panel B): 19 nM
complete responses [1]: 0/5

Structure (SMILES): C#CCN(Cc1ccc2nc(N)[nH]c(=O)c2c1)c1ccc(C(=O)O)cc1 [EC283]
RA (relative affinity) (human FRs (KB cells); [4]): 0.002

Structure (SMILES): Nc1nc2ncc(CNc3ccc(C(=O)N[C@@H](CCC(=O)NC[C@H](N)C(=O)N[C@@H](CC(=O)O)C(=O)N[C@@H](CS)C(=O)O)C(=O)O)cc3)nc2c(=O)[nH]1 [EC20, Pte-γGlūβDpr-Asp-Cys]
Fold Weaker Affinity form FA (human FRs (KB cells); Table 2, 37° C., 10% serum): 1.1
Relative Binding Affinity (37° C.) (human FRs (KB cells); Table 2, adherent KB cells, 10% serum, 37° C., FA = 1): 0.92

Structure (SMILES): C#CCN(Cc1ccc2nc(N)[nH]c(=O)c2c1)c1ccc(C(=O)O)cc1 [Des-glutamyl CB3717, N^10-propargyl 5,8-dideazapteroic acid]
fold weaker affinity / fold lower RA (human FRs (KB cells); KB cells, 10% serum, 37° C.): > 300
Fold Weaker Affinity from FA (human FRs (KB cells); Table 1, 37° C., 10% serum): 500
Relative Binding Affinity (37° C.) (human FRs (KB cells); [3]): 0.002

Structure (SMILES): CC[C@]1(O)CC2CN(CCc3c([nH]c4ccccc34)[C@@](C(=O)OC)(c3cc4c(cc3OC)N(C)[C@H]3[C@@](O)(C(=O)NNC(=O)OCCSSC[C@H](NC(=O)[C@H](CC(=O)O)NC(=O)[C@H](CC(=O)O)NC(=O)[C@H](CCCNC(=N)N)NC(=O)[C@H](CC(=O)O)NC(=O)CC[C@H](NC(=O)c5ccc(NCc6cnc7nc(N)[nH]c(=O)c7n6)cc5)C(=O)O)C(=O)O)[C@H](O)[C@]5(CC)C=CCN6CC[C@]43[C@@H]65)C2)C1 (stereo partly drawn) [EC145, EC119-L-DAVLBH]
Fold Weaker Affinity form FA (human FRs (KB cells)): 2.1
Relative Binding Affinity (37° C.) (human FRs (KB cells)): 0.47
fold change of RA with serum versus absence of serum (human FRs (KB cells)): 2.4
RA (relative affinity) [2]: 0.12
complete responses [1]: 2/5

The next lines start with results.

RA (relative affinity) (human FRs (KB cells); KB cells on ice / cold incubation, absence of serum): 0.42
fold weaker affinity than FA (human FRs (KB cells); KB cells on ice, no serum): 2.4
fold weaker affinity / fold lower RA (human FRs (KB cells); KB cells, 10% serum, 37° C., listed as Pte): 91 and 90
RA (relative affinity) (human FRs (KB cells); KB cells, 37° C., no serum): 0.01
fold weaker affinity than FA (human FRs (KB cells); KB cells, 37° C., no serum): 100
Fold Weaker Affinity from FA (human FRs (KB cells); Table 1, 37° C., 10% serum): 91
Relative Binding Affinity (0° C.) (human FRs (KB cells); Table 1, KB cells, FA = 1): 0.42
Relative Binding Affinity (37° C.) (human FRs (KB cells); [3]): 0.011
Structure (SMILES): Nc1nc2ncc(CNc3ccc(C(=O)O)cc3)nc2c(=O)[nH]1 [Pteroic Acid]

Fold Weaker Affinity from FA (human FRs (KB cells); Table 1, 37° C., 10% serum): 500
Relative Binding Affinity (0° C.) (human FRs (KB cells); Table 1, KB cells, FA = 1): 0.26
Relative Binding Affinity (37° C.) (human FRs (KB cells); [3]): 0.002
Structure (SMILES): Nc1nc2[nH]cc(CCc3ccc(C(=O)N[C@@H](CCC(=O)O)C(=O)O)cc3)c2c(=O)[nH]1 [Pemetrexed, N-(4-(2-(2-amino-4,7-dihydro-4-oxo-3H-pyrrolo[2,3-D]pyrimidin-5-yl)ethyl)benzoyl]-L-glutamic acid]
Relative Binding Affinity (0° C.), value in parentheses (Folate Receptor): 1.5

competition with binding of 3H-FA (human FRs (KB cells); 300-fold molar excess, KB cells): not able to compete
RA / competitive binding in words (human FRs (KB cells); KB cells, 10% serum, 37° C.): very low
Structure (SMILES): Cc1cc2nc3c(=O)[nH]c(=O)nc-3n(C[C@H](O)[C@H](O)[C@H](O)CO)c2cc1C [riboflavin]
